From ChEMBL document CHEMBL4038262, “Design, synthesis and antibacterial activities of thiouracil derivatives containing acyl thiourea as SecA inhibitors” (Bioorg Med Chem Lett, 2017)
Values after ≈ are worked out from the molar mass of the structure shown.

Tests used:
[1] = test system: Bacillus amyloliquefaciens; assay: Antibacterial activity against Bacillus amyloliquefaciens at 25 ug/ml after 24 hrs by plate colony counting method relative to control; type: functional
Staphylococcus aureus [2] = assay: Antibacterial activity against Staphylococcus aureus at 25 ug/ml after 24 hrs by plate colony counting method relative to control; type: functional
Bacillus subtilis [3] = assay: Antibacterial activity against Bacillus subtilis at 25 ug/ml after 24 hrs by plate colony counting method relative to control; type: functional
Escherichia coli [4] = assay: Inhibition of Escherichia coli BL21.19 SecA at 40 ug/ml after 30 mins by malachite green dye-based assay relative to control
[5] = Inhibition of Escherichia coli BL21.19 SecA after 30 mins by malachite green dye-based assay
[6] = test system: Bacillus amyloliquefaciens; assay: Antibacterial activity against Bacillus amyloliquefaciens after 24 hrs by plate colony counting method; type: functional
Staphylococcus aureus [7] = assay: Antibacterial activity against Staphylococcus aureus after 24 hrs by plate colony counting method; type: functional
Bacillus subtilis [8] = assay: Antibacterial activity against Bacillus subtilis after 24 hrs by plate colony counting method; type: functional
Escherichia coli [9] = assay: Inhibition of Escherichia coli BL21.19 SecA at 20 ug/ml after 30 mins by malachite green dye-based assay relative to control

| inhibition (Escherichia coli [4]) [%] | IC50 [5] [µg/mL] | MIC [6] [µg/mL] | MIC (Staphylococcus aureus [7]) [µg/mL] | MIC (Bacillus subtilis [8]) [µg/mL] | inhibition (Escherichia coli [9]) [%] | SMILES | inhibition at 25 µg/mL [1] [%] | inhibition at 25 µg/mL (Staphylococcus aureus [2]) [%] | inhibition at 25 µg/mL (Bacillus subtilis [3]) [%] |
| --- | --- | --- | --- | --- | --- | --- | --- | --- | --- |
|  |  |  |  |  |  | N#Cc1c(-c2ccc(Cl)cc2Cl)nc(SCc2ccc(C(=O)NC(=S)Nc3ccc(Cl)cc3)cc2)[nH]c1=O | 74 | 69 | 74 |
|  |  |  |  |  |  | Cc1ccccc1NC(=S)NC(=O)c1ccc(CSc2nc(-c3c(Cl)cccc3Cl)c(C#N)c(=O)[nH]2)cc1 | 50 | 64 | 62 |
| 50 | 39.4 (≈ 74.1 µM) |  |  |  |  | N#Cc1c(-c2ccccc2)nc(SCc2ccc(C(=O)NC(=S)Nc3ccc(Cl)cc3)cc2)[nH]c1=O | 79 | 64 | 71 |
|  |  |  |  |  |  | Cc1ccccc1NC(=S)NC(=O)c1ccc(CSc2nc(-c3ccc(Cl)cc3Cl)c(C#N)c(=O)[nH]2)cc1 | 55 | 66 | 54 |
|  |  | 50 (≈ 78.7 µM) | 50 (≈ 78.7 µM) | 50 (≈ 78.7 µM) |  | N#Cc1c(-c2ccc(Cl)cc2Cl)nc(SCc2ccc(C(=O)NC(=S)Nc3c(Cl)cccc3Cl)cc2)[nH]c1=O | 72 | 68 | 69 |
|  |  |  |  |  |  | N#Cc1c(-c2ccc(Cl)cc2)nc(SCc2ccc(C(=O)NC(=S)Nc3ccccc3)cc2)[nH]c1=O | 70 | 67 | 63 |
|  |  |  |  |  |  | N#Cc1c(-c2ccccc2Cl)nc(SCc2ccc(C(=O)NC(=S)Nc3ccc(Cl)cc3)cc2)[nH]c1=O | 63 | 68 | 68 |
|  | 16 (≈ 26.6 µM) | 25 (≈ 41.6 µM) | 50 (≈ 83.2 µM) | 50 (≈ 83.2 µM) | 50 | N#Cc1c(-c2ccccc2Cl)nc(SCc2ccc(C(=O)NC(=S)Nc3c(Cl)cccc3Cl)cc2)[nH]c1=O | 89 | 79 | 92 |
|  | 20.8 (≈ 29.2 µM) | 12.5 (≈ 17.5 µM) | 25 (≈ 35.1 µM) | 50 (≈ 70.1 µM) |  | N#Cc1c(-c2ccc(-c3ccccc3)cc2)nc(SCc2ccc(CSc3nc(-c4ccc(-c5ccccc5)cc4)c(C#N)c(=O)[nH]3)cc2)[nH]c1=O | 87 | 79 | 44 |
|  |  | 50 (≈ 77.8 µM) | 50 (≈ 77.8 µM) | 50 (≈ 77.8 µM) |  | N#Cc1c(-c2ccc(-c3ccccc3)cc2)nc(SCc2ccc(C(=O)NC(=S)Nc3c(Cl)cccc3Cl)cc2)[nH]c1=O | 71 | 80 | 69 |
|  |  |  |  |  |  | Cc1ccccc1NC(=S)NC(=O)c1ccc(CSc2nc(-c3ccc(-c4ccccc4)cc3)c(C#N)c(=O)[nH]2)cc1 | 73 | 67 | 78 |
|  |  |  |  |  |  | N#Cc1c(-c2c(Cl)cccc2Cl)nc(SCc2ccc(C(=O)NC(=S)Nc3ccccc3)cc2)[nH]c1=O | 71 | 71 | 55 |
|  |  |  |  |  |  | N#Cc1c(-c2c(Cl)cccc2Cl)nc(SCc2ccc(C(=O)NC(=S)Nc3ccc(Cl)cc3)cc2)[nH]c1=O | 49 | 68 | 63 |
|  | 17.9 (≈ 33.6 µM) | 25 (≈ 47 µM) | 50 (≈ 94 µM) | 25 (≈ 47 µM) | 50 | N#Cc1c(-c2ccccc2Cl)nc(SCc2ccc(C(=O)NC(=S)Nc3ccccc3)cc2)[nH]c1=O | 67 | 80 | 87 |
|  |  |  |  |  |  | N#Cc1c(-c2ccc(Cl)cc2Cl)nc(SCc2ccc(C(=O)NC(=S)Nc3ccccc3)cc2)[nH]c1=O | 56 | 79 | 66 |
|  |  |  |  |  |  | N#Cc1c(-c2ccc(-c3ccccc3)cc2)nc(SCc2ccc(C(=O)NC(=S)Nc3ccc(Cl)cc3)cc2)[nH]c1=O | 75 | 76 | 56 |
|  |  |  |  |  |  | Cc1ccccc1NC(=S)NC(=O)c1ccc(CSc2nc(-c3ccccc3Cl)c(C#N)c(=O)[nH]2)cc1 | 78 | 71 | 82 |
|  |  |  |  |  |  | Cc1ccccc1NC(=S)NC(=O)c1ccc(CSc2nc(-c3ccc(Cl)cc3)c(C#N)c(=O)[nH]2)cc1 | 61 | 58 | 78 |
|  |  | 50 (≈ 87.2 µM) | 50 (≈ 87.2 µM) | 50 (≈ 87.2 µM) |  | N#Cc1c(-c2ccc(-c3ccccc3)cc2)nc(SCc2ccc(C(=O)NC(=S)Nc3ccccc3)cc2)[nH]c1=O | 62 | 83 | 72 |
| 50 | 38.8 (≈ 64.6 µM) | 25 (≈ 41.6 µM) | 50 (≈ 83.2 µM) | 50 (≈ 83.2 µM) |  | N#Cc1c(-c2ccc(Cl)cc2)nc(SCc2ccc(C(=O)NC(=S)Nc3c(Cl)cccc3Cl)cc2)[nH]c1=O | 81 | 81 | 80 |
|  |  |  |  |  |  | N#Cc1c(-c2ccc(Cl)cc2)nc(SCc2ccc(C(=O)NC(=S)Nc3ccc(Cl)cc3)cc2)[nH]c1=O | 61 | 62 | 91 |
|  |  | 50 (≈ 78.7 µM) | 50 (≈ 78.7 µM) | 50 (≈ 78.7 µM) |  | N#Cc1c(-c2c(Cl)cccc2Cl)nc(SCc2ccc(C(=O)NC(=S)Nc3c(Cl)cccc3Cl)cc2)[nH]c1=O | 53 | 79 | 73 |
|  |  |  |  |  |  | N#Cc1c(-c2ccccc2)nc(SCc2ccc(C(=O)NC(=S)Nc3c(Cl)cccc3Cl)cc2)[nH]c1=O | 81 | 70 | 84 |
|  |  |  |  |  |  | N#Cc1c(-c2ccccc2)nc(SCc2ccc(C(=O)NC(=S)Nc3ccccc3)cc2)[nH]c1=O | 70 | 67 | 63 |
|  |  |  |  |  |  | Cc1ccccc1NC(=S)NC(=O)c1ccc(CSc2nc(-c3ccccc3)c(C#N)c(=O)[nH]2)cc1 | 69 | 63 | 78 |

| SMILES | inhibition (Escherichia coli [4]) [%] | IC50 [5] [µg/mL] | MIC [6] [µg/mL] | MIC (Staphylococcus aureus [7]) [µg/mL] | MIC (Bacillus subtilis [8]) [µg/mL] | inhibition (Escherichia coli [9]) [%] | inhibition at 25 µg/mL [1] [%] | inhibition at 25 µg/mL (Staphylococcus aureus [2]) [%] | inhibition at 25 µg/mL (Bacillus subtilis [3]) [%] |
| --- | --- | --- | --- | --- | --- | --- | --- | --- | --- |
| CCn1cc(C(=O)O)c(=O)c2cc(F)c(N3CCNCC3)cc21 [NORFLOXACIN] |  |  | 25 (≈ 78.3 µM) | 25 (≈ 78.3 µM) | 25 (≈ 78.3 µM) |  | 84 | 78 | 89 |
